Source: US5340816A, “Hydroxymethyl(methylenecyclopentyl) purines and pyrimidines” (E. R. Squibb & Sons, Inc., priority 1993, dated 1994)

How the values were obtained:
[1] = system: HSV-1; assay: HSV-1 antiviral plaque reduction assay in WI-38 cell culture monolayers; type: cell-based, herpes simplex virus type 1, strain Schooler; conditions: Human alphaherpesvirus 1, 96 h, WI-38 cells, 4 days at 37° C., read-out: ID50 for HSV-1
Experimental: (§1) Assays were performed in cell culture systems to determine the concentrations of compounds that are effective in preventing several kinds of viral infections.
(§2) HSV-1 (herpes simplex virus type 1, strain Schooler), HSV-2 (herpes simplex virus type 2, strain 186), VZV (varicella zoster virus, strain ELLEN), HCMV (human cytomegalovirus, strain AD 169 HIV (human immununodeficiency virus, strain HTLV-IIIB).
(§3) HSV-1, HSV-2, HCMV and VZV antiviral assays: Virus was adsorbed to WI-38 cell culture monolayers in 6 well culture plates (Costar, Cambridge, Mass.) for 1 hour prior to addition of maintenance medium containing duplicate dilutions of the test compound. Inhibition of plaque development was evaluated on fixed and stained monolayers after 4 days incubation at 37° C. for HSV-1 and HSV-2, and after 5-7 days incubation at 37° C. for HCMV and VZV. ID50 values were determined from the drug concentration which conferred at least a 50% plaque reduction compared to virus controls.

[2] = system: HSV-2; assay: HSV-2 antiviral plaque reduction assay in WI-38 cell culture monolayers; type: cell-based, herpes simplex virus type 2, strain 186; conditions: Human alphaherpesvirus 2, 96 h, WI-38 cells, 4 days at 37° C., read-out: ID50 for HSV-2
Experimental: as §1, §2, §3

[3] = system: VZV; assay: VZV antiviral plaque reduction assay in WI-38 cell culture monolayers; type: cell-based, varicella zoster virus, strain ELLEN; conditions: Human alphaherpesvirus 3, WI-38 cells, 5-7 days at 37° C., read-out: ID50 for VZV
Experimental: as §1, §2, §3

[4] = system: HCMV; assay: HCMV antiviral plaque reduction assay in WI-38 cell culture monolayers; type: cell-based, human cytomegalovirus, strain AD 169; conditions: Human betaherpesvirus 5, WI-38 cells, 5-7 days at 37° C., read-out: ID50 for HCMV
Experimental: as §1, §2, §3

[5] = system: HIV; assay: HIV antiviral assay (reduction of viral cytopathic effect in MT-2 cells, XTT-PMS); type: cell-based, human immununodeficiency virus, strain HTLV-IIIB; conditions: Human immunodeficiency virus 1, MT2, 168 h, 7 days, read-out: reduction in viral CPE (HIV)
Experimental: as §1, §2
HIV antiviral assay: Suspensions of MT-2 cells (S. Harada, et al., Science, 229, 563 (1985)) were infected at a multiplicity of infection of 0.03 TLID50 /cell with HIV (strain HTLV-III B). […] Following incubation, viable cell numbers were counted in each well using a colorimetric assay following incubation of cells with XTT-PMS solution (XTT tetrazolium reagent plus phenazine methosulfate PMS).
(§4) Percent reduction of viral cytopathic effect (CPE) in drug treated compared to untreated virus infected cells, and percent reduction of cell viability in drug treated uninfected cells compared to untreated controls were calculated and plotted versus the drug concentrations tested. […]

[6] = Reduction of cell viability in uninfected MT-2 cells (XTT-PMS); type: cell-based; conditions: human, 7 days
Experimental: HIV antiviral assay: Suspensions of MT-2 cells (S. Harada, et al., Science, 229, 563 (1985)) were infected at a multiplicity of infection of 0.03 TLID50 /cell with HIV (strain HTLV-III B). After adsorption for 1-2 hours at 37° C., infected cells were diluted in growth medium (RPMI 1640 containing the antibiotics penicillin plus streptomycin and 10% fetal calf serum) to give a final cell concentration of 1×10^4 viable cells/culture well in the presence of serial dilutions of the test compound, starting at 100 μg/ml. Triplicate samples at each drug concentration were used. Cultures of uninfected MT-2 cells were similarly prepared and incubated with serial dilutions of test compound in duplicate. All assays were performed in 96 well disposable cell culture plates. Untreated (infected and uninfected) cells were included as controls. […] Following incubation, viable cell numbers were counted in each well using a colorimetric assay following incubation of cells with XTT-PMS solution (XTT tetrazolium reagent plus phenazine methosulfate PMS).
as §4

Structure (SMILES) | IC50 [1] [µM] | IC50 [2] [µM] | IC50 [3] [µM] | IC50 [4] [µM] | inhibition at 12 µM ([5]; at 12 μM) [%] | cytotoxicity at 168 h, 12 µM ([6]; at 12 μM) [%] | inhibition at 27 µM ([5]; at 27 μM) [%] | cytotoxicity at 168 h, 27 µM ([6]; at 27 μM) [%]
C=C1[C@H](CO)[C@@H](O)C[C@@H]1n1cnc2c(=O)[nH]c(N)nc21 [[1S-(1α,3α,4β)]-2-Amino-1,9-dihydro-9-[4-hydroxy-3-(hydroxymethyl)-2-methylenecyclopentyl]-6H-purin-6-one] | 3.6 | 7.2 to 18 | 18 to 36 | 90 | 41 | 4 |  | 
C=C1[C@H](CO)[C@@H](O)C[C@@H]1n1cc(/C=C/Br)c(=O)[nH]c1=O [[1S-[1α(E),3α,4β)]-5-(2-Bromoethenyl)-1-[4-hydroxy-3-(hydroxymethyl)-2-methylenecyclopentyl]-2,4(1H,3H)-pyrimidinedione] | 0.6 to 1.5 | 29 to 73 | 0.3 to 0.6 | 291 |  |  |  | 
C=C1[C@H](CO)[C@@H](O)C[C@@H]1n1ccc(N)nc1=O | 4.2 to 8.4 | 2.1 to 4.2 | 4.2 to 42 | 2.1 to 4.2 |  |  |  | 
C=C1[C@H](CO)[C@@H](O)C[C@@H]1n1cc(C)c(=O)[nH]c1=O [[1S-(1α,3α,4β)]-1-[4-Hydroxy-3-(hydroxymethyl)-2-methylenecyclopentyl]-5-methyl-2,4(1H,3H)-pyrimidinedione] | 8 to 20 | 40 to 100 | 40 to 400 | ≥ 396 |  |  |  | 
C=C1[C@H](CO)[C@@H](O)C[C@@H]1n1cc(/C=C/Cl)c(=O)[nH]c1=O [[1S-[1α(E),3α,4β]]-5-(2-Chloroethenyl)-1-[4-hydroxy-3-(hydroxymethyl)-2-methylenecyclopentyl]-2,4(1H,3H)-pyrimidinedione] | 0.07 to 0.16 | 2 | 1.7 |  |  |  |  | 
C=C1[C@H](CO)[C@@H](O)C[C@@H]1n1cnc2c(N)ncnc21 [[1R-(1α,3α,5β)]-3-(6-Amino-9H-purin-9-yl)-5-hydroxy-2-methylenecyclopentanemethanol] | 191 to 383 | 191 to 383 | > 96 | > 38 |  |  | 50 | 23
C=C1[C@H](CO)[C@@H](O)C[C@@H]1n1cc(/C=C/I)c(=O)[nH]c1=O | 0.5 to 1.3 | 13 to 26 | 0.05 to 0.14 | > 260 |  |  |  | 
C=C1[C@H](CO)[C@@H](O)C[C@@H]1n1cc(I)c(=O)[nH]c1=O [[1S-(1α,3α,4β)]-1-[4-Hydroxy-3-(hydroxymethyl)-2-methylenecyclopentyl]-5-iodo-2,4(1H,3H)pyrimidinedione] | 6 to 14 | > 275 | 68 to 137 | 68 to 137 |  |  |  | 
